The values that follow come from US5484780A, “Angiotensin II antagonists” (Eli Lilly and Company, priority 1994, dated 1996).

Molecules are shown by their SMILES. Where “and” joins values, the source holds several entries; their conditions need not be identical. Identical values can stand only once.

The assay has as its target T1, angiotensin-induced vasoconstriction (rabbit aorta) (Oryctolagus cuniculus, UniProt P34976).
T1 construct: The thoracic aortas were removed and cleaned of excess fat and connective tissue; from tissue; host or cells: thoracic aorta rings of New Zealand white rabbits (animals from Hazelton)
T1 sequence (P34976 1-359): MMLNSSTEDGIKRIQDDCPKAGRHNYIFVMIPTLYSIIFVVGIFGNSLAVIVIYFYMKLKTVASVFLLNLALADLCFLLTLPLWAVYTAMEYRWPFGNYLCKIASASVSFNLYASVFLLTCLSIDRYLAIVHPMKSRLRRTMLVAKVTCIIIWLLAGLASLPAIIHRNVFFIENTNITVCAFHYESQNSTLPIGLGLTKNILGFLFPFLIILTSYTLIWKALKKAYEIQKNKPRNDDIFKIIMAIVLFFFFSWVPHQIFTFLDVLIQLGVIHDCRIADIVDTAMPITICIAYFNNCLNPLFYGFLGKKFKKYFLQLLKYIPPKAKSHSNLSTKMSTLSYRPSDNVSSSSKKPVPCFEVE
In words: Rabbit Aorta Test System: antagonism of angiotensin II contraction of aortic rings. The arrangement: species or system New Zealand white rabbits. To be noted: contraction to AII 10^-10 to 10^-7 M, 30 minutes incubation with compound; pA2 = -log KB. The procedure: As previously discussed, the compounds of Formula I are potent effective antagonists of angiotensin II. The ability of representative compounds of Formula I to block angiotensin II receptor binding was determined using the adrenal glomerulosa assay. The ability to antagonize angiotensin-induced vasoconstriction was evaluated in the rabbit aorta test system.
New Zealand white rabbits (Hazelton, 2-3 kg) were sacrificed by cervical dislocation. The thoracic aortas were removed and cleaned of excess fat and connective tissue. Rings of tissue (3 mm wide) were mounted in 10 ml tissue baths between 2 L-shaped stainless steel hooks. The lower hook was attached to a stationary rod. The upper hook was attached to a force displacement transducer (Grass model FT.03). The bath chambers were maintained at 37° C., aerated with 95% 02 /5% C02, and contained physiological solution of the following composition (mM): NaCl, 117; glucose, 5.6; NaH2 PO4, 1.0; MgS04, 0.7; KCl, 5.2; CaCl2, 1.8; NaHCO3, 26; and phentolamine HCl, 0.003.
Rings were equilibrated for 1 hour with 2 g of tension. During the equilibration period, the tissues were washed by overflow every 15 minutes. Rings were then exposed to 10^-8 M angiotensin II (AII) and were allowed to contract until a steady state was reached. Tissues were then washed every 15 minutes for 1 hour. This was repeated every hour until the AII response stabilized. A cumulative concentration response curve to AII (10^-10 to 10^-7 M) was then obtained. At the conclusion of the concentration response curve, tissues were washed every 2 minutes until baseline tension was reached, then every 15 minutes for 30 minutes. Compounds were added in a volume of 10 μl DMSO and allowed to incubate for 30 minutes before repeating the concentration response curve to AII. Contractions to AII were expressed as a percent of the maximum contraction obtained in the control curve (the first AII concentration response curve). EC50 's (concentration that contracted the tissues to 1/2 the control maximum) for each curve were calculated using a 4 parameter logistics model (NonLin, SAS Institute). Potency data for each compound tested are expressed as the pA2 (defined as-log KB, where KB =[molar concentration of antagonist]/[(EC50 AII with antagonist/EC50 AII without antagonist)-1]).
In general, Kb refers to the affinity of an antagonist, worked out from how it opposes an agonist. As to `CCCCCC[C@H](C(=O)N1C[C@@H](Oc2ccc(P(=O)(O)O)cc2)C[C@H]1C(=O)O)n1cnc(NC(=O)c2ccccc2S(=O)(=O)O)c1` [Example 44], the Kb was 5.01 nM.

Turning to `CCCCCC[C@H](C(=O)N1C[C@@H](Oc2ccc([S+](C)[O-])cc2)C[C@H]1C(=O)O)n1cnc(NC(=O)c2ccccc2S(=O)(=O)O)c1` (stereo partly drawn) [Example 31], the “Rabbit Aorta (pA2)” value amounted to 8.9. In the case of `CCCCCC[C@H](C(=O)N1C[C@@H](Oc2ccc(CNS(C)(=O)=O)cc2)C[C@H]1C(=O)O)n1cnc(NC(=O)c2ccccc2S(=O)(=O)O)c1` [Example 95], the Kb is 0.158 nM. For `CCCCCC[C@H](C(=O)N1C[C@@H](Oc2ccc(S(=O)(=O)N3CCCC3)cc2)C[C@H]1C(=O)O)n1cnc(NC(=O)c2ccccc2S(=O)(=O)O)c1` [Example 39], the Kb is 1 nM. As for `CCCCCC[C@H](C(=O)N1C[C@@H](Oc2ccc(S(C)(=O)=O)cc2)C[C@H]1C(=O)O)n1cnc(NC(=O)c2ccccc2S(=O)(=O)O)c1` [Example 32], the Kb was 1.26 nM.

Regarding `CCCCCCC(C(=O)N1CCNC1=S)n1cnc(NC(=O)c2ccccc2S(=O)(=O)O)c1` (stereo not drawn) [Example 6, 2-[[[1-[1-[(2-thioxo-1-imidazolidinyl)carbonyl]-heptyl]-1H-imidazol-4-yl]amino]carbonyl]benzenesulfonic acid], the “Rabbit Aorta (pA2)” value is given as 6.3. `CCCCCCC(C(=O)N1C[C@@H](Oc2cccnc2)C[C@H]1C(=O)O)n1cnc(NC(=O)c2ccccc2S(=O)(=O)O)c1` (stereo partly drawn) [Example 17, 1-[1-Oxo-2-[4-(2-sulfobenzoyl)amino-1H-imidazol-1-yl]octyl]4-cis-(3-pyridyloxy)-L-proline]: the Kb is 15.8 nM. In the case of `CCCCC(C(=O)N1C[C@@H](Oc2ccccc2)C[C@H]1C(=O)O)n1cnc(NC(=O)c2ccccc2S(=O)(=O)O)c1` (single isomer, unassigned) [Example 14, 1-[1-oxo-2-[4-(2-sulfobenzoyl)amino-1H-imidazol-1-yl]hexyl]-4-cis-phenoxy-L-proline], the Kb is 31.6 nM and 126 nM. Take `CCCCCC[C@H](C(=O)N1C[C@@H](Oc2cccc3ccccc23)C[C@H]1C(=O)O)n1cnc(NC(=O)c2ccccc2S(=O)(=O)O)c1` [Example 64]: the Kb is 2000 nM.

On to `CCCCCCC(C(=O)N1CCC[C@H]1C(=O)O)n1cnc(NC(=O)c2ccccc2S(=O)(=O)O)c1` (single isomer, unassigned) [Example 21, 1-[1-Oxo-2-[4-(2-sulfobenzoyl)amino-1H-imidazol-1-yl]octyl]-L-proline], for which the Kb is 63.1 nM and 501 nM. On to `CCCCCC[C@H](C(=O)N1C[C@@H](Oc2ccc(CC(=O)N(C)CC(=O)O)cc2)C[C@H]1C(=O)O)n1cnc(NC(=O)c2ccccc2S(=O)(=O)O)c1` [Example 46], for which the Kb is 2 nM.

For the compound `CCCCCCC(C(=O)N1CCC[C@@H]1C(=O)O)n1cnc(NC(=O)c2ccccc2S(=O)(=O)O)c1` (stereo partly drawn) [Example 11], the Kb was 200 nM and 251 nM. Take `CCCCCC[C@H](C(=O)N1C[C@@H](Oc2ccc(C3CCCC3)cc2)C[C@H]1C(=O)O)n1cnc(NC(=O)c2ccccc2S(=O)(=O)O)c1` [Example 26]: the Kb is 2.51 nM. Still for that read-out and setting: the figure for `CCCCCC[C@H](C(=O)N1C[C@@H](Oc2ccc(CC(=O)O)cc2)C[C@H]1C(=O)O)n1cnc(NC(=O)c2ccccc2-c2nn[nH]n2)c1` [Example 77] is 1.58 nM.

For the compound `CCCCCC[C@H](C(=O)N1C[C@@H](Oc2ccc(OC3CCCC3)cc2)C[C@H]1C(=O)O)n1cnc(NC(=O)c2ccccc2S(=O)(=O)O)c1` [Example 54], the Kb was 2.51 nM.

Consider `CCCCCC[C@H](C(=O)N1C[C@@H](Oc2ccc(OCC3CC3)cc2)C[C@H]1C(=O)O)n1cnc(NC(=O)c2ccccc2S(=O)(=O)O)c1` [Example 55], for which the Kb is 0.398 nM. Regarding `CCCCCC[C@H](C(=O)N1C[C@@H](Oc2cccnc2)C[C@H]1C(=O)O)n1cnc(NC(=O)c2ccccc2S(=O)(=O)O)c1` [Example 73], the Kb is 158 nM. With `CCCCCC[C@H](C(=O)N1C[C@@H](Oc2ccc(-n3cncn3)cc2)C[C@H]1C(=O)O)n1cnc(NC(=O)c2ccccc2S(=O)(=O)O)c1` [Example 45], the Kb is 0.251 nM. For the compound `CCCCCCC(C(=O)N1C[C@@H](Oc2ccc(OC)cc2)C[C@H]1C(=O)O)n1cnc(NC(=O)c2ccccc2S(=O)(=O)O)c1` (single isomer, unassigned) [Example 18], the Kb is 0.2 nM. Take `CCCCCC[C@H](C(=O)N1C[C@@H](Oc2ccc(OCC)cc2)C[C@H]1C(=O)O)n1cnc(NC(=O)c2ccccc2S(=O)(=O)O)c1` [Example 48]: the Kb is 0.631 nM.

For `CCCCCC[C@H](C(=O)N1C[C@@H](Oc2ccc(N(C)S(C)(=O)=O)cc2)C[C@H]1C(=O)O)n1cnc(NC(=O)c2ccccc2S(=O)(=O)O)c1` [Example 94, (R)-1-[1-oxo-2-[4-(2-sulfobenzoyl)amino-1H-imidazol-1-yl]octyl]-4-(cis)-[(4-N,N-methyl-methanesulfonamido)-phenoxy]-L-proline], the Kb was 0.251 nM. The same measure, in the same setting: under `CCCCCC[C@H](C(=O)N1C[C@@H](Oc2ccc(OC(C)C)cc2)C[C@H]1C(=O)O)n1cnc(NC(=O)c2ccccc2S(=O)(=O)O)c1` [Example 49] stands 2.51 nM; under `CCCCCC[C@H](C(=O)N1C[C@@H](Oc2ccc(OC)c(OC)c2)C[C@H]1C(=O)O)n1cnc(NC(=O)c2cccc(O)c2C(=O)O)c1` [Example 90], 20 nM. For `CCCCCC[C@H](C(=O)N1C[C@@H](Oc2ccc(OC(C)(C)C)cc2)C[C@H]1C(=O)O)n1cnc(NC(=O)c2ccccc2S(=O)(=O)O)c1` [Example 52], the Kb is 3.98 nM. With `CCCCCC[C@H](C(=O)N1C[C@@H](Oc2ccc(CC(=O)O)cc2)C[C@H]1C(=O)O)n1cnc(NC(=O)c2ccccc2S(=O)(=O)O)c1` [Example 36], the Kb was 0.398 nM. For `CCCCCC[C@H](C(=O)N1C[C@@H](Oc2ccc(NS(=O)(=O)C(F)(F)F)cc2)C[C@H]1C(=O)O)n1cnc(NC(=O)c2ccccc2S(=O)(=O)O)c1` [Example 93, (R)-1-[1-oxo-2-[4-(2-sulfobenzoyl)amino-1H-imidazol-1-yl]octyl]-4-(cis)-((4-N-triflouromethanesulfonamido)-phenoxy)-L-proline], the “Rabbit Aorta (pA2)” value came to 8.9.

`CCCCCC[C@H](C(=O)N1C[C@@H](Oc2ccc(OCCCC)cc2)C[C@H]1C(=O)O)n1cnc(NC(=O)c2ccccc2S(=O)(=O)O)c1` [Example 50]: the Kb is 2 nM.

`CCCCCC[C@H](C(=O)N1C[C@@H](Oc2ccc(C(=O)O)cc2)C[C@H]1C(=O)O)n1cnc(NC(=O)c2cccc(O)c2C(=O)O)c1` [Example 85]: the Kb was 1.26 nM. The same measure, in the same setting: under `CCCCCC[C@H](C(=O)N1C[C@@H](Oc2ccc(OC(F)(F)F)cc2)C[C@H]1C(=O)O)n1cnc(NC(=O)c2ccccc2S(=O)(=O)O)c1` [Example 53] stands 10 nM; under `CCCCCC[C@H](C(=O)N1C[C@@H](Oc2ccc(-c3nc(C(=O)O)co3)cc2)C[C@H]1C(=O)O)n1cnc(NC(=O)c2ccccc2S(=O)(=O)O)c1` [Example 41], 0.158 nM; under `CCCCCC[C@H](C(=O)N1C[C@@H](Oc2ccc(OCC(=O)O)cc2)C[C@H]1C(=O)O)n1cnc(NC(=O)c2ccccc2S(=O)(=O)O)c1` [Example 57], 0.316 nM. As to `CCCCCC[C@H](C(=O)N1C[C@@H](Oc2ccc(C)cc2)C[C@H]1C(=O)O)n1cnc(NC(=O)c2ccccc2S(=O)(=O)O)c1` [Example 22], the Kb is 0.398 nM. Consider `CCCCCC[C@H](C(=O)N1C[C@@H](Oc2ccc(F)cc2)C[C@H]1C(=O)O)n1cnc(NC(=O)c2ccccc2S(=O)(=O)O)c1` [Example 28], for which the “Rabbit Aorta (pA2)” value is 8.7. Regarding `CCCCCC[C@H](C(=O)N1C[C@@H](Oc2ccc3oc(C(=O)O)cc3c2)C[C@H]1C(=O)O)n1cnc(NC(=O)c2ccccc2S(=O)(=O)O)c1` [Example 70], the Kb was 0.501 nM. Take `CCCCCC[C@H](C(=O)N1C[C@@H](Oc2ccc(-n3ccnc3)cc2)C[C@H]1C(=O)O)n1cnc(NC(=O)c2ccccc2S(=O)(=O)O)c1` [Example 38]: the Kb is 1.26 nM. Still for that read-out and setting: the figure for `CCCCCC(C(=O)N1C[C@@H](Oc2ccccc2)C[C@H]1C(=O)O)n1cnc(NC(=O)c2ccccc2S(=O)(=O)O)c1` (stereo partly drawn) [Example 13, 1-[1-oxo-2-[4-(2-sulfobenzoyl)amino-1H-imidazol-1-yl]heptyl]-4-cis-phenoxy-L-proline] is 63.1 nM and 126 nM.
